Source: patent US20040248953A1, “3-Arylsulfanyl and 3-heteroarylsulfanyl substituted benzo[b]thiophenes as therapeutic agents” (priority 2003, published 2004)

Molecular target: T1, PI3Kγ (Homo sapiens, UniProt P48736)
T1 construct: HA; made in house; host or cells: Spodoptera frugiperda (Sf9) cells, baculovirus coinfection
Experiment: PI3Kγ in vitro kinase assay (32P-ATP, PIP2 lipid micelles, filter plate)
Format: biochemical
Conditions: purified recombinant p101/p110γ protein with G protein β1/γ2 subunits; 20 μM ATP; 25 μM PIP2; 20 minutes at room temperature
Description: Spodtera frugiperda cells, grown in ESF921 media, were coinfected with baculovirus expressing a glu-tagged p101 and baculovirus expressing an HA-tagged p110γ, at a 3:1 ratio of p101 baculovirus to p110γ baculovirus. Sf9 cells were grown to 1×10^7 total cells/mL in 10 L bioreactors and harvested 48-72 hours post infection. Samples of infected cells were then tested for expression of p101/p110γ PI3 kinase by immunoprecipitation and Western Blot analysis methods (see below). To purify PI3Kγ, 4 volumes of room temperature hypotonic lysis buffer (1 mM MgCl2, 1 mM DTT, 5 mM EGTA, 1 mM Pefabloc, 0.5 μM aprotinin, 5 μM leupeptin, 2 μM pepstatin, 5 μM E64, pH 8) per gram of cell paste, was poured onto frozen cell pellets with stirring, then lysed in a nitrogen “bomb” at 400 psi (599HC […], Parr Instrument Co, Moline, Ill.). NaCl was added to 150 mM, and sodium cholate was added to 1% and mixed for another 45 minutes. The lysates were clarified by centrifugation for 25 minutes at 14,000 rpm. The lysates were then loaded over anti-glu-linked Protein-G Sepaharose beads (Covance Research Products, Richmond, Calif.) using 20 mL resin/50 g cell paste. The column was washed with 15 volumes of wash buffer (1 mM DTT, 0.2 mM EGTA, 1 mM Pefabloc, 0.5 μM aprotinin, 5 μM leupeptin, 2 μM pepstatin, 5 μM E64, 150 mM NaCl, 1% sodium cholate, pH 8). PI3Kγ was eluted with 6 column volumes of wash buffer that contain 100 μg/mL of a peptide that competes for binding of the glu tag. The column fractions with the eluted protein (determined by taking OD280 readings) were collected and dialyzed in 0.2 mM EGTA, 1 mM DTT, 1 mM Pefabloc, 5 μM leupeptin, 0.5% sodium cholate, 150 mM NaCl, and 50% glycerol, pH 8. The fractions were stored at -80° C. until further use. Spodtera frugiperda cells were coinfected with baculovirus expressing a glu-tagged G protein β1 and baculovirus expressing a […], at a 1:1 ratio of glu-tagged G protein β1 baculovirus to G protein β2 baculovirus. Sf9 cells are grown in 10 L bioreactors and harvested 48-72 hours post infection. Samples of infected cells were tested for G protein β1/β2 expression by Western Blot analysis, as described below. Cell lysates were homogenized and loaded onto a column of glu-tagged beads as in Biological Example 1 and competed off the column with a glu peptide and processed as described in Biological Example 1. The inhibitory properties of the compounds in Table 1 were assayed in an in vitro PI3K assay. In a 96-well polypropylene plate, each well was spotted with […] of 50 times the desired final concentration of compound in DMSO. Purified recombinant p101/p110γ protein (0.03 μg; 2.7 nM) and G protein β1/γ2 subunits (0.09 μg; 57.7 nM) for each reaction was combined in the assay buffer (30 mM HEPES, 100 mM NaCl, 1 mM EGTA, and 1 mM DTT). ATP and [γ-^32P-ATP] (0.09 μCi) were added to this mixture so that the final ATP concentration in the reaction was 20 μM. Lipid micelles were formed by sonicating phosphatidylinositol4,5-diphosphate (PIP2), phosphatidylethanolamine (PE), and Na-cholate in the assay buffer for 10 minutes, adding MgCl2 and incubating on ice for 20 minutes, for final concentrations of 25 μM PIP2, 300 μM PE, 0.02% Na-cholate, and 10 mM MgCl2 in the reaction. The reactions were started by adding equal volumes lipid and enzyme mixture in a total volume of 50 μL, allowed to run for 20 minutes at room temperature, and stopped with 100 μL 75 mM H3PO4. The lipid product was transferred to a glass fiber filter plate and washed with 75 mM H3PO4 several times. The presence of radioactive lipid product (PIP3) was measured by adding Wallac Optiphase mix to each well and counting in a Wallac 1450 Trilux plate reader (PerkinElmer Life Sciences Inc., Boston, Mass. 02118). The IC50 for each compound tested is reported in μM in Table 1: […]

T1 sequence (P48736 whole entry, species assumed): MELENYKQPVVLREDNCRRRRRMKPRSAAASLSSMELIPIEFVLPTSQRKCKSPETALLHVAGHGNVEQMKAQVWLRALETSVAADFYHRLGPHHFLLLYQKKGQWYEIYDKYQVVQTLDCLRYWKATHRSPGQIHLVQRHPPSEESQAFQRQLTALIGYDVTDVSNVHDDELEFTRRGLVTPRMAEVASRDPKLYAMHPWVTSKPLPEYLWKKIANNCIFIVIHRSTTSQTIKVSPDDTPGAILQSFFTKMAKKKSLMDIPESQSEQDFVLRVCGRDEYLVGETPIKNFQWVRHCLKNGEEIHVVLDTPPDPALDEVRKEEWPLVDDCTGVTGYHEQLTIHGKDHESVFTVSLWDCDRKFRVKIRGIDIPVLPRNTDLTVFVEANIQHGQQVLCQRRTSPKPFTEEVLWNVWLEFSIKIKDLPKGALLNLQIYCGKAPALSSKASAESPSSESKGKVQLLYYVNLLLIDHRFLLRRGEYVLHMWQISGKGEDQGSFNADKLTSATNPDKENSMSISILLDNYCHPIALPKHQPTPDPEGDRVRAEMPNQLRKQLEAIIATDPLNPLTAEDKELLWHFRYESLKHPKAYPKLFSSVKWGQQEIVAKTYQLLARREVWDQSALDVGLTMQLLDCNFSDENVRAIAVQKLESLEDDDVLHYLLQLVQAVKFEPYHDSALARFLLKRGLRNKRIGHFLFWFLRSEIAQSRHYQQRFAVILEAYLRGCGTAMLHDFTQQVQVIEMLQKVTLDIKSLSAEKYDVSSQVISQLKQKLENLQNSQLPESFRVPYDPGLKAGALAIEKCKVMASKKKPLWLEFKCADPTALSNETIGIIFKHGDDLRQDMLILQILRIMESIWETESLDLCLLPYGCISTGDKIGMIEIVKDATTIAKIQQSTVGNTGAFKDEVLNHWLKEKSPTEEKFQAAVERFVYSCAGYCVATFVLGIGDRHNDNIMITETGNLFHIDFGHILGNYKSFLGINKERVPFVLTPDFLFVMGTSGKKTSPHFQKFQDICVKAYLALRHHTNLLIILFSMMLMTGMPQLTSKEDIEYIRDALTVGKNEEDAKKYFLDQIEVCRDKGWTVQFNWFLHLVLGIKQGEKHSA
T1 sequence (Q8WYR1 whole entry partner, species assumed): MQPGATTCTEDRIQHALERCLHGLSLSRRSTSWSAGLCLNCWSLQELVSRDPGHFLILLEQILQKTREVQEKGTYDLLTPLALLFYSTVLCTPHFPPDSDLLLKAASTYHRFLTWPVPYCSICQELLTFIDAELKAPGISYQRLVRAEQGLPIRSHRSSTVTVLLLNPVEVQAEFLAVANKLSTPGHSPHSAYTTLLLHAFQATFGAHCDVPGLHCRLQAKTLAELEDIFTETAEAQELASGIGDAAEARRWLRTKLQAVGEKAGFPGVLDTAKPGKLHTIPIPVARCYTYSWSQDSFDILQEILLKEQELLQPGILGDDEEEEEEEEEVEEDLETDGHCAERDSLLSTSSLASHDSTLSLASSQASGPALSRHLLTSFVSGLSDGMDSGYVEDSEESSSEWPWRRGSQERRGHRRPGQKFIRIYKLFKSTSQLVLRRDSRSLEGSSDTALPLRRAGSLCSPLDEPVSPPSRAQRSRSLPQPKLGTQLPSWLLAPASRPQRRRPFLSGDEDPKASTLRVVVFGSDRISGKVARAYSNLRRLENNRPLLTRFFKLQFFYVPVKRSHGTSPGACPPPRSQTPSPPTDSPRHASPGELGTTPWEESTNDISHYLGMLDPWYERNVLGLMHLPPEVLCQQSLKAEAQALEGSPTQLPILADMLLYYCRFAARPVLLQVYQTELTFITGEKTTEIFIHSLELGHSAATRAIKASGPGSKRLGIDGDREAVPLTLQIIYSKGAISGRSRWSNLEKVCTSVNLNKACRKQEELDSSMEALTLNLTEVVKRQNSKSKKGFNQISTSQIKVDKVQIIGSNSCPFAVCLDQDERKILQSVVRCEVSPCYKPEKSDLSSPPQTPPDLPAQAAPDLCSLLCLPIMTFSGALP

Row | IC50 [µM] | Molecule
1 | 0.17 | 3-(3-Chloro-phenylsulfanyl)-5-methoxy-6-methyl-benzo[b]thiophene-2-carboxylic acid(1H-tetrazol-5-yl)-amide [Example 33]
2 | 0.215 | 3-[2-(Acetyl-methyl-amino)-1-phenyl-propylsulfanyl]-6-methoxy-5-methyl-benzo[b]thiophene-2-carboxylic acid(1H-tetrazol-5-yl)-amide [Example 43]
3 | 0.522 | 5,6-dimethoxy-3-phenethylsulfanyl-benzo[b]thiophene-2-carboxylic acid(1H-tetrazol-5-yl)-amide [Example 13]
4 | 2.85 | 5-Ethoxy-3-phenethylsulfanyl-benzo[b]thiophene-2-carboxylic acid(1H-tetrazol-5-yl)-amide [Example 52]
5 | 2.21 | 5-methoxy-3-(2-methyl-furan-3-ylsulfanyl)-benzo[b]thiophene-2-carboxylic acid(1H-tetrazol-5-yl)-amide [Example 16]
6 | 0.06 | COc1cc2sc(C(=O)Nc3nnn[nH]3)c(Sc3ccccc3)c2cc1OC [Example 1, 5,6-Dimethoxy-3-phenylsulfanyl-benzo[b]thiophene-2-carboxylic acid(1H-tetrazol-5-yl)-amide]
7 | 0.177 | COc1cc2c(Sc3ccccc3)c(C(=O)Nc3nnn[nH]3)sc2cc1C [Example 2, 5-Methoxy-6-methyl-3-phenylsulfanyl-benzo[b]thiophene-2-carboxylic acid(1H-tetrazol-5-yl)-amide]
8 | 0.253 | CCOc1ccc2sc(C(=O)Nc3nnn[nH]3)c(Sc3ccccc3)c2c1 [Example 3, 5-Ethoxy-3-phenylsulfanyl-benzo[b]thiophene-2-carboxylic acid (1H-tetrazol-5-yl)-amide]
9 | 2.77 | COc1ccc2sc(C(=O)Nc3nnn[nH]3)c(Sc3ccc(O)cc3)c2c1 [Example 4, 3-(4-hydroxy-phenylsulfanyl)-5-methoxy-benzo[b]thiophene-2-carboxylic acid(1H-tetrazol-5-yl)-amide]
10 | 1.27 | COc1cc2sc(C(=O)Nc3nnn[nH]3)c(Sc3ccccc3C)c2cc1OC [Example 5, 5,6-dimethoxy-3-o-tolysulfanyl-benzo[b]thiophene-2-carboxylic acid(1H-tetrazol-5-yl)-amide]
11 | 1.17 | CCc1ccccc1Sc1c(C(=O)Nc2nnn[nH]2)sc2cc(OC)c(OC)cc12 [Example 6, 3-(2-ethyl-phenylsulfanyl)-5,6-dimethoxy-benzo[b]thiophene-2-carboxylic acid(1H-tetrazol-5-yl)-amide]
12 | 1.99 | COc1cc2sc(C(=O)Nc3nnn[nH]3)c(Sc3cccc(Cl)c3)c2cc1OC [Example 7, 3-(3-chloro-phenylsulfanyl)-5,6-dimethoxy-benzo[b]thiophene-2-carboxylic acid(1H-tetrazol-5-yl)-amide]
13 | 3.72 | COc1cc2sc(C(=O)Nc3nnn[nH]3)c(Sc3ccc(Cl)cc3)c2cc1OC [Example 8, 3-(4-chloro-phenylsulfanyl)-5,6-dimethoxy-benzo[b]thiophene-2-carboxylic acid(1H-tetrazol-5-yl)-amide]
14 | 2.8 | COc1cc2sc(C(=O)Nc3nnn[nH]3)c(Sc3ccc(C)cc3C)c2cc1OC [Example 9, 3-(2,4-dimethyl-phenylsulfanyl)-5,6-dimethoxy-benzo[b]thiophene-2-carboxylic acid(1H-tetrazol-5-yl)-amide]
15 | 1.13 | COc1cc2sc(C(=O)Nc3nnn[nH]3)c(Sc3cccc(Cl)c3Cl)c2cc1OC [Example 10, 3-(2,3-dichloro-phenylsulfanyl)-5,6-dimethoxy-benzo[b]thiophene-2-carboxylic acid(1H-tetrazol-5-yl)-amide]
16 | 2.07 | COc1cc2sc(C(=O)Nc3nnn[nH]3)c(Sc3ccc(C)c(C)c3)c2cc1OC [Example 11, 3-(3,4-dimethyl-phenylsulfanyl)-5,6-dimethoxy-benzo[b]thiophene-2-carboxylic acid(1H-tetrazol-5-yl)-amide]
17 | 1.23 | COc1cc2sc(C(=O)Nc3nnn[nH]3)c(Sc3ccc(Cl)c(Cl)c3)c2cc1OC [Example 12, 3-(3,4-dichloro-phenylsulfanyl)-5,6-dimethoxy-benzo[b]thiophene-2-carboxylic acid(1H-tetrazol-5-yl)-amide]
18 | 2.31 | COc1cc(Sc2c(C(=O)Nc3nnn[nH]3)sc3cc(OC)c(OC)cc23)ccc1O [Example 14, 3-(4-hydroxy-3-methoxy-phenylsulfanyl)-5,6-dimethoxy-benzo[b]thiophene-2-carboxylic acid(1H-tetrazol-5-yl)-amide]
19 | 0.62 | COc1ccc(OC)c(Sc2c(C(=O)Nc3nnn[nH]3)sc3cc(OC)c(OC)cc23)c1 [Example 15, 3-(2,5-dimethoxy-phenylsulfanyl)-5,6-dimethoxy-benzo[b]thiophene-2-carboxylic acid(1H-tetrazol-5-yl)-amide]
20 | 2.65 | COc1ccc2sc(C(=O)Nc3nnn[nH]3)c(Sc3ccccc3)c2c1 [Example 17, 5-methoxy-3-phenylsulfanyl-benzo[b]thiophene-2-carboxylic acid(1H-tetrazol-5-yl)-amide]
21 | 0.47 | COc1ccc2sc(C(=O)Nc3nnn[nH]3)c(Sc3ccccc3C)c2c1 [Example 18, 5-methoxy-3-o-tolysulfanyl-benzo[b]thiophene-2-carboxylic acid (1H-tetrazol-5-yl)-amide]
22 | 2.22 | COc1ccc2sc(C(=O)Nc3nnn[nH]3)c(Sc3ccccc3Cl)c2c1 [Example 19, 3-(2-chloro-phenylsulfanyl)-5-methoxy-benzo[b]thiophene-2-carboxylic acid(1H-tetrazol-5-yl)-amide]
23 | 2.92 | COc1ccc2sc(C(=O)Nc3nnn[nH]3)c(Sc3ccccc3Br)c2c1 [Example 20, 3-(2-bromo-phenylsulfanyl)-5-methoxy-benzo[b]thiophene-2-carboxylic acid(1H-tetrazol-5-yl)-amide]
24 | 4.31 | COc1ccc2sc(C(=O)Nc3nnn[nH]3)c(Sc3cccc(Cl)c3)c2c1 [Example 21, 3-(3-chloro-phenylsulfanyl)-5-methoxy-benzo[b]thiophene-2-carboxylic acid(1H-tetrazol-5-yl)-amide]
25 | 2.93 | COc1cccc(Sc2c(C(=O)Nc3nnn[nH]3)sc3ccc(OC)cc23)c1 [Example 22, 5-methoxy-3-(3methoxyphenylsulfanyl)-benzo[b]thiophene-2-carboxylic acid(1H-tetrazol-5-yl)-amide]
26 | 4.93 | COc1ccc2sc(C(=O)Nc3nnn[nH]3)c(Sc3ccc(Cl)cc3)c2c1 [Example 23, 3-(4-chloro-phenylsulfanyl)-5-methoxy-benzo[b]thiophene-2-carboxylic acid(1H-tetrazol-5-yl)-amide]
27 | 1.22 | COc1ccc(OC)c(Sc2c(C(=O)Nc3nnn[nH]3)sc3ccc(OC)cc23)c1 [Example 24, 3-(2,5-dimethoxy-phenylsulfanyl)-5-methoxy-benzo[b]thiophene-2-carboxylic acid(1H-tetrazol-5-yl)-amide]
28 | 1.6 | COc1ccc2sc(C(=O)Nc3nnn[nH]3)c(SCCc3ccccc3)c2c1 [Example 26, 5-methoxy-3-phenethylsulfanyl-benzo[b]thiophene-2-carboxylic acid(1H-tetrazol-5-yl)-amide]

Row | Molecule | IC50 [µM]
29 | 3-(2,3-dichloro-phenylsulfanyl)-5-methoxy-benzo[b]thiophene-2-carboxylic acid(1H-tetrazol-5-yl)-amide [Example 25] | 3.45
